One data set in a line: Water solubility. The format is physicochemical.
Another data set addresses T1, Stromelysin (Homo sapiens, UniProt P08254).
T1 construct: initiating methionine (N); made in house; host or cells: E. coli BL21(DE3)/pLysS, pET3d
Briefly: Inhibition of degradation (autolysis) of stromelysin. Type of data set: biochemical. The conditions noted are these: 500 mM. On the procedure: Studies were performed to design new ligands that bound to the catalytic domain of stromelysin. Because stromelysin undergoes autolysis, an inhibitor was sought to block the degradation of stromelysin. That inhibitor would facilitate the screening of other potential ligands that bind to other sites on the enzyme.
A variety of hydroxamic acids of the general formula R-(CO)NHOH were screened for binding to stromelysin using the procedures set forth in Example 2.

The target in data set [1] is T2, catalytic domain of stromelysin (Homo sapiens, UniProt P08254).
T2 construct: initiating methionine (N); made in house; host or cells: E. coli BL21(DE3)/pLysS, pET3d
T2 sequence (P08254 100-273): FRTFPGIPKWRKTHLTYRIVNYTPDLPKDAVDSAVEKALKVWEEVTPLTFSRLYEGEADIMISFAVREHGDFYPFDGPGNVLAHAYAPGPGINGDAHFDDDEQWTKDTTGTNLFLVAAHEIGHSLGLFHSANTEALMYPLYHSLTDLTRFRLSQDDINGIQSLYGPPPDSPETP
In words: NMR binding (2D 15N/1H HSQC) to the catalytic domain of stromelysin. On the procedure:
The catalytic domain of stromelysin was prepared in accordance with the procedures of Example 1. The protein solutions used in the screening assay contained the uniformly ^15 N-labeled catalytic domain of stromelysin (0.3 mM), acetohydroxamic acid (500 mM), CaCl2 (20 mM), and sodium azide (0.5%) in a H2 O/D2 O (9/1) TRIS buffered solution (50 mM, pH=7.0).
Two-dimensional ^15 N/^1 H NMR spectra were generated at 29° C. on a Bruker AMX500 NMR spectrometer equipped with a triple resonance probe and Bruker sample changer. The ^15 N/^1 H HSQC spectra were acquired as 80x1024 complex points using sweep widths of 2000 Hz (^15 N, t^1) and 8333 Hz (^1 H, t2). […] All NMR spectra were processed and analyzed on Silicon Graphics computers using in-house-written software. […]
Various biaryl compounds of structure I were tested for binding to stromelysin at differing concentrations. The ^15 N/^1 H spectra generated at each concentration were evaluated to quantify differences in the spectra as a function of compound concentration. A binding or dissociation constant (KD)was calculated, using standard procedures well known in the art, from those differences. […]
In a first study, binding constants were determined, both by the NMR method of the present invention, and by a prior an enzymatic assay. […] The KD values so obtained were compared to an inhibition constant KI as determined in an enzymatic assay. […]

Data set [2] deals with T2, catalytic domain of stromelysin. In words: Enzymatic assay, cleavage of a fluorogenic substrate by stromelysin. The format is biochemical. On the procedure:
The target molecule was the catalytic domain of stromelysin prepared in accordance with the procedures of Example 1. […] The KD values so obtained were compared to an inhibition constant KI as determined in an enzymatic assay.
The enzymatic assay measured the rate of cleavage of a fluorogenic substrate by following the fluorescence increase upon peptide cleavage which causes a separation between the fluorophore and quencher. Enzymatic activity was measured using a matrix of different concentrations of acetohydroxamic acid and biaryl compounds.
Individual compound concentration varied due to solubility and potency.
All NMR measurements were performed in the presence of 500 mM acetohydroxamic acid, except for the titration of acetohydroxamic acid itself. Dissociation constants were obtained from the dependence of the observed chemical shift changes upon added ligand. Inhibition constants were then obtained from the inhibition data using standard procedures.

The structures appear in SMILES notation. Like-named read-outs stand apart in the source and are kept apart here.

By Kd is commonly meant the constant that tells how readily two partners part at equilibrium. As usually defined, the Ki is a measure of affinity in units of concentration, obtained from inhibition or displacement. Read a high Ki as lower affinity.

T1 sequence (P08254 100-273): as above

Take `CC(=O)NO` [Acetohydroxamic acid, acetohydroxamic acid]: the water solubility entry in “Water solubility” is given as “good water solubility”. The “inhibition of the degradation of the enzyme” value against Stromelysin was “inhibited the degradation of the enzyme”.

Take `c1ccc(-c2ccncc2)cc1` [Compound 7]: the dissociation constant (Kd) in data set [1] was found to be 200 µM; in data set [1] (Table 3, in the presence of 500 mM acetohydroxamic acid, read-out: NMR KD), 170 µM. Besides, in data set [2], affinity was put at a Ki of 320 µM.

The values above are taken from patent US5698401A, “Use of nuclear magnetic resonance to identify ligands to target biomolecules” (priority 1995, dated 1997).
